1 substance from patent publication US11534457B2, “Use of dextran sulfate” (priority 2017, dated 2022) can be followed below.

The subject of this test is βIII-tubulin expression in human motor neurons. Put plainly: βIII-tubulin immunostaining (differentiation-related protein expression). Type of test: cell-based. The note with it: 48 h. The protocol:
Neurons were cultured as 40,000 cells per well and Schwann cells 3,000 cells per. Cells were treated after 24 hours. The number of cells per well depended on the growth phenotype, proliferative capacity, etc.
NeuroBlast was pre-warmed to 37° C. Cells were thawed in a 37° C. water bath for no longer than 2 min. 1 ml of media was gently added drop-wise. Cells were resuspended and transferred to a 15 ml tube containing 9 ml of medium. Cells were centrifuged at 200 relative centrifugal force (RCF) for 5 min. Pellet was resuspended in 5 ml of medium and cells were counted with the Cellometer. 40,000 cells per well were seeded in previously coated 96-well plates. Cells were incubated at 37° C. with 5% CO2. Cells were allowed to settle for 24 hours before drug treatment. […]
LMW-DS was prepared in the culture media of choice for each cell line and added to the respective wells in the doses 0.01 and 0.1 mg/ml. For cell survival assays cells were analyzed after 24 and 48 hours in eight identical wells/dose/time point. Differentiation and protein expression assay was analyzed after 48 hours, also in octuplicates. […]
The Acumen cytometer allows the direct cytometric analysis of attached cells without prior detachment. […] The protein content of the cells can also be directly measured and expressed as either ‘total protein content’ or ‘mean protein content’.

With “low molecular weight dextran sulfate [LMW-DS]”, the “size of the majority of βIII-tubulin positive cells vs control cultures” value is reported as “smaller”. Further, the βIII-tubulin expression entry (0.01 and 0.1 mg/ml) is given as “significantly increased”.
